# Laboratory results as given in US9808434B2, “Compound for treating cancer and diabetes” (CITY OF HOPE, priority 2011, dated 2017).
# Experiments:
# [1] = system: ACL, adiponectin, C/EBPα, Glut4, PPARγ; experiment: Adipogenic marker protein expression, Western blotting; format: cell-based, mouse; details: 7 days in DM + compound
# Protocol: Post-confluent 3T3-L1 preadipocytes were differentiated for 7 days in the presence of differentiating media (DM), or DM+ test compounds (LR23 (5 μM, 25 μM, or 50 μM), LR59 (5 μM, 25 μM, or 50 μM), LR-90 (25 μM), ROS (50 μM), TSA (0.5 μM) or apicidin (1 μM)). Protein levels were analyzed by Western blotting and the relative expression of each protein was quantified using a densitometer and calculated according to the reference bands of β-actin (FIG. 8). Numbers above each blot represent fold increase over control (undifferentiated preadipocytes).
# 3T3-L1 preadipocytes cells were treated with differentiating media (DM) with COH-SR4 (1 μM, 3 μM, or 5 μM) or without for 7 days. […] As used in FIG. 9C, U=undifferentiated, D=differentiated with cocktail media.
# [2] = system: HRE promoter; experiment: HRE promoter luciferase reporter in U251; format: cell-based; details: U251, 1 or 3 μM, 24 hours, normoxic and hypoxic
# Protocol: U251 cells were transfected with plasmids expressing luciferase reporter genes driven by a HRE reporter plasmid containing five copies of the HRE site (5×HRE). Transfected cells were then incubated with COH-SR4 at various concentrations (0, 1, or 3 μM) for 24 hours and assayed for luciferase activities. Data were represented as a ratio to vehicle control that was treated by DMSO.
# [3] = system: U251 glioma cells; experiment: Combination index with chemotherapy drugs, U251; format: cell-based
# Protocol: Effects of combination of COH-SR4 and a chemotherapy drug such as TMZ, SN38, CPT-11, and 5-FU were studied by combination index (CI) theorem and plot using the method described in Chou (“Experimental Design, and Computerized Simulation of Synergism and Antagonism in Drug Combination Studies,” Pharmacological Reviews, Vol. 58, No. 3), which is incorporated herein by reference in its entirety.
# COH-SR4 and a chemotherapy drug (TMZ, SN38, CPT-11, or 5-FU) were dissolved in DMSO individually, and then diluted to the appropriate concentration in the same cell culture media before applying to cells of each cell line. After 4 days, the amount of ATP present in the cell lysates were assessed using Progema's CellGlo kit. The CI of each combination of COH-SR4 and the chemotherapy drug was calculated and plotted against the concentration of COH-SR4 for each concentration of the chemotherapy drug used.
# [4] = system: AMPK; experiment: AMPK activation in human melanoma cell lines; format: cell-based; details: regardless of BRAF, NRAS and LKB1 mutation
# Protocol: Cell or tissue proteins were extracted with cell lysis buffer (Cell Signaling Technology) and protein concentration was determined using the DC Protein Assay kit (Bio-Rad, Hercules, Calif., USA). Equal amount of proteins (˜40 μg) were loaded onto 4-15% Criterion TGX gels (Bio-Rad, Hercules, Calif.), resolved by SDS-PAGE electrophoresis, and then transferred onto nitrocellulose membranes for immunoblotting. Membranes were blocked with 5% skimmed milk in Tris-buffered saline containing 0.05% Tween 20 before incubation overnight at 4° C. with desired primary antibodies. Immuno-reactive proteins were visualized by peroxidase-labeled secondary antibodies and ECL system (Western Lightning Chemiluminescence Reagent, Perkin-Elmer, Mass., USA). Equal loading of proteins was confirmed by stripping and re-probing the membranes with either β-actin or GAPDH antibodies. Band intensities were quantified using a densitometer (Quantity One, Bio-Rad, Hercules, Calif.).
# One of the consequences of mitochondria uncoupling is decrease intracellular ATP production, leading to increased AMP:ATP ratio and triggering activation of the energy-sensitive enzyme AMPK. It has been previously shown that COH-SR4 indirectly activates AMPK in a time- and dose-dependent manner in both HepG2 cells and 3T3-adipocytes. […] In melanomas, mutation rates for BRAF NRAS and LKB1 are 50-70%, 5-30%, and 10%, respectively. […]
# [5] = system: H1618 cells; experiment: MTT assay, H1618; format: cell-based; details: Homo sapiens, 48 h
# Protocol: Cell density measurements were performed using a hemocytometer to count reproductive cells resistant to staining with trypan blue. Approximately 20,000 cells were plated into each well of 96-well flat-bottomed micro-titer plates. After 12 h or 24 h incubation at 37° C., medium containing either COH-SR4 (ranging 0-200 μM) or elesclomol (ranging 0-20 μM) were added to the cells. After 24 h, 48 h or 96 h incubation, 20 μL of 5 mg/mL MTT were introduced to each well and incubated for 2 h. The plates were centrifuged and medium was decanted. Cells were subsequently dissolved in 100 μl DMSO with gentle shaking for 2 h at room temperature, followed by measurement of OD570 (91).
# The effect of COH-SR4 was first examined in a NCI panel of cancer cell lines, the results of which indicated good activity of COH-SR4 towards lung cancer (FIG. 78A). […] Values are presented as mean±SD from two separate determinations with eight replicates each (n=16) (FIG. 78B). […] Standard colony-forming assay was performed and the colonies were counted using Innotech Alpha Imager HP. […] TUNEL assay was performed using Promega fluorescence detection kit and examined using Zeiss LSM 510 META laser-scanning fluorescence microscope with filters 520 and 620 nm. […]
structure (smiles),measurement,setting,value
"O=C(Nc1cc(Cl)cc(Cl)c1)Nc1cc(Cl)cc(Cl)c1 [COH-SR4, 1,3-bis(3,5-dichlorophenyl) urea]",expression of adipogenic markers,[1],"decreased expression of key transcription factors (C/EBPα, PPARγ) and proteins (ACL, adiponectin, FAS)"
same,luciferase expression driven by HRE promoter,[2],inhibited luciferase expression driven by HRE promoter
same,combination effect (CI) with CPT-11,[3]; COH-SR4 <0.5 μM + CPT-11 <0.125 μM,Synergism
same,combination effect (CI) with SN-38,[3]; COH-SR4 <0.5 μM + SN-38 <0.001 μM,Synergism
same,combination effect (CI) with TMZ,"[3]; COH-SR4 <0.5 μM + TMZ 12.5 μM, 4 days",Synergism
same,combination effect (CI) with SN-38,[3]; COH-SR4 >0.5 μM + SN-38 <0.003 μM,Additive effects
same,combination effect (CI) with TMZ,[3]; COH-SR4 >0.65 μM + TMZ 100 μM,Additive effects
same,combination effect (CI) with CPT-11,[3]; COH-SR4 >0.675 μM + CPT-11 >0.5 μM,Additive effects
same,activation of AMPK,[4],dose- and time-dependent activation of AMPK
same,IC50,[5],1500 ± 200 nM
